Measured values reported in the supplement of paper PMC10307832.

How the values were obtained:
Assay in all cases: relative viability (nuclei count vs DMSO), 5 days (fraction); higher = more cells survive
NCI-H1437 = tested on: NCI-H1437
Summary of the method: (§1)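 Nuclei were stained with Hoechst during a one-step fixation (final 0.05% Triton X-100, 1% formaldehyde, 1 ug/ml Hoechst) carried out 5 days after dosing, then counted on 4× images. The cells, lung cancer lines in 1536-well plates, had been dosed by pin tool the day after seeding with one drug alone or a fixed anchor-drug dose plus five library-drug doses (not always all listed) in √10 steps. Relative viability is the nuclei count in treated wells divided by that in vehicle wells, and each value is the median of duplicate plates.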

NCI-H23 = tested on: NCI-H23
Summary of the method: as §1

HCC-366 = tested on: HCC-366
Summary of the method: as §1

SW 1573 = tested on: SW 1573
Summary of the method: as §1

NCI-H727 = tested on: NCI-H727
Summary of the method: as §1

NCI-H460 = tested on: NCI-H460
Summary of the method: as §1

CAL-12T = tested on: CAL-12T
Summary of the method: as §1

HOP-62 = tested on: HOP-62
Summary of the method: as §1

SK-LU-1 = tested on: SK-LU-1
Summary of the method: as §1

NCI-H1395 = tested on: NCI-H1395
Summary of the method: as §1

EMC-BAC-2 = tested on: EMC-BAC-2
Summary of the method: as §1

COR-L 105 = tested on: COR-L 105
Summary of the method: as §1

NCI-H1915 = tested on: NCI-H1915
Summary of the method: as §1

HARA = tested on: HARA
Summary of the method: as §1

NCI-H2228 = tested on: NCI-H2228
Summary of the method: as §1

NCI-H2009 = tested on: NCI-H2009
Summary of the method: as §1

NCI-H1755 = tested on: NCI-H1755
Summary of the method: as §1

NCI-H1792 = tested on: NCI-H1792
Summary of the method: as §1

A-427 = tested on: A-427
Summary of the method: as §1

With `CC(=O)O[C@@]12CO[C@@H]1C[C@H](O)[C@@]1(C)C(=O)[C@H](O)C3=C(C)[C@@H](OC(=O)[C@H](O)[C@@H](NC(=O)OC(C)(C)C)c4ccccc4)C[C@@](O)([C@@H](OC(=O)c4ccccc4)[C@H]21)C3(C)C` [Docetaxel] + CS(=O)(=O)CCNCc1ccc(-c2ccc3ncnc(Nc4ccc(OCc5cccc(F)c5)c(Cl)c4)c3c2)o1 [Lapatinib] (partner 2 µM) the relative viability (NCI-H1437; first compound 0.0002 µM) was 0.663, the relative viability (NCI-H1437; first compound 0.000632 µM) was 0.508 and the relative viability (NCI-H1437; first compound 0.002 µM) was 0.185. The relative viability (NCI-H1437; first compound 0.006325 µM) was 0.12, the relative viability (NCI-H1437; first compound 0.02 µM) was 0.089 and the relative viability (NCI-H23; first compound 0.0002 µM) was 0.963. For the same compound, the relative viability (NCI-H23; first compound 0.000632 µM) was 0.725, the relative viability (NCI-H23; first compound 0.002 µM) was 0.356 and the relative viability (NCI-H23; first compound 0.006325 µM) was 0.157. The relative viability (NCI-H23; first compound 0.02 µM) was 0.123, the relative viability (HCC-366; first compound 0.0002 µM) was 0.938 and the relative viability (HCC-366; first compound 0.000632 µM) was 0.054. The relative viability (HCC-366; first compound 0.002 µM) was 0.0282, the relative viability (HCC-366; first compound 0.006325 µM) was 0.0194 and the relative viability (HCC-366; first compound 0.02 µM) was 0.011. It also gave a relative viability (SW 1573; first compound 0.0002 µM) of 1.06, a relative viability (SW 1573; first compound 0.000632 µM) of 0.946 and a relative viability (SW 1573; first compound 0.002 µM) of 0.321. The relative viability (SW 1573; first compound 0.006325 µM) was 0.256, the relative viability (SW 1573; first compound 0.02 µM) was 0.192 and the relative viability (NCI-H727; first compound 0.0002 µM) was 0.854. For the same compound, the relative viability (NCI-H727; first compound 0.000632 µM) was 0.787, the relative viability (NCI-H727; first compound 0.002 µM) was 0.371 and the relative viability (NCI-H727; first compound 0.006325 µM) was 0.26. For the same compound, the relative viability (NCI-H460; first compound 0.0002 µM) was 0.665, the relative viability (NCI-H460; first compound 0.000632 µM) was 0.163 and the relative viability (NCI-H460; first compound 0.002 µM) was 0.0209. For the same compound, the relative viability (NCI-H460; first compound 0.006325 µM) was 0.0147, the relative viability (NCI-H460; first compound 0.02 µM) was 0.0097 and the relative viability (CAL-12T; first compound 0.0002 µM) was 0.757. The relative viability (CAL-12T; first compound 0.000632 µM) was 0.496, the relative viability (CAL-12T; first compound 0.002 µM) was 0.277 and the relative viability (CAL-12T; first compound 0.006325 µM) was 0.25. The relative viability (HOP-62; first compound 0.0002 µM) was 0.828, the relative viability (HOP-62; first compound 0.000632 µM) was 0.448 and the relative viability (HOP-62; first compound 0.02 µM) was 0.112. For the same compound, the relative viability (SK-LU-1; first compound 0.0002 µM) was 0.581, the relative viability (SK-LU-1; first compound 0.000632 µM) was 0.436 and the relative viability (SK-LU-1; first compound 0.002 µM) was 0.338. The relative viability (SK-LU-1; first compound 0.006325 µM) was 0.222, the relative viability (SK-LU-1; first compound 0.02 µM) was 0.233 and the relative viability (NCI-H1395; first compound 0.0002 µM) was 0.992. It also gave a relative viability (NCI-H1395; first compound 0.000632 µM) of 0.954, a relative viability (NCI-H1395; first compound 0.002 µM) of 0.775 and a relative viability (NCI-H1395; first compound 0.006325 µM) of 0.368. The relative viability (NCI-H1395; first compound 0.02 µM) was 0.268, the relative viability (EMC-BAC-2; first compound 0.0002 µM) was 0.735 and the relative viability (EMC-BAC-2; first compound 0.000632 µM) was 0.613. It also gave a relative viability (EMC-BAC-2; first compound 0.002 µM) of 0.337, a relative viability (EMC-BAC-2; first compound 0.006325 µM) of 0.278 and a relative viability (EMC-BAC-2; first compound 0.02 µM) of 0.209. It also gave a relative viability (COR-L 105; first compound 0.0002 µM) of 0.369, a relative viability (COR-L 105; first compound 0.000632 µM) of 0.277 and a relative viability (COR-L 105; first compound 0.002 µM) of 0.313. For the same compound, the relative viability (COR-L 105; first compound 0.006325 µM) was 0.283, the relative viability (COR-L 105; first compound 0.02 µM) was 0.268 and the relative viability (NCI-H1915; first compound 0.0002 µM) was 0.937. For the same compound, the relative viability (NCI-H1915; first compound 0.000632 µM) was 0.665, the relative viability (NCI-H1915; first compound 0.002 µM) was 0.351 and the relative viability (NCI-H1915; first compound 0.006325 µM) was 0.146. For the same compound, the relative viability (NCI-H1915; first compound 0.02 µM) was 0.118, the relative viability (HARA; first compound 0.0002 µM) was 0.517 and the relative viability (HARA; first compound 0.000632 µM) was 0.302. The relative viability (HARA; first compound 0.006325 µM) was 0.0686, the relative viability (HARA; first compound 0.02 µM) was 0.0783 and the relative viability (NCI-H2228; first compound 0.0002 µM) was 0.641. The relative viability (NCI-H2228; first compound 0.000632 µM) was 0.184, the relative viability (NCI-H2228; first compound 0.002 µM) was 0.255 and the relative viability (NCI-H2228; first compound 0.006325 µM) was 0.267. For the same compound, the relative viability (NCI-H2228; first compound 0.02 µM) was 0.16, the relative viability (NCI-H2009; first compound 0.0002 µM) was 0.965 and the relative viability (NCI-H2009; first compound 0.000632 µM) was 0.922. The relative viability (NCI-H2009; first compound 0.002 µM) was 0.412, the relative viability (NCI-H2009; first compound 0.006325 µM) was 0.195 and the relative viability (NCI-H2009; first compound 0.02 µM) was 0.12. The relative viability (NCI-H1755; first compound 0.0002 µM) was 0.99, the relative viability (NCI-H1755; first compound 0.000632 µM) was 0.756 and the relative viability (NCI-H1755; first compound 0.002 µM) was 0.495. The relative viability (NCI-H1755; first compound 0.006325 µM) was 0.448, the relative viability (NCI-H1755; first compound 0.02 µM) was 0.258 and the relative viability (NCI-H1792; first compound 0.0002 µM) was 0.741. It also gave a relative viability (NCI-H1792; first compound 0.000632 µM) of 0.85, a relative viability (NCI-H1792; first compound 0.002 µM) of 0.522 and a relative viability (NCI-H1792; first compound 0.02 µM) of 0.0831. It also gave a relative viability (A-427; first compound 0.0002 µM) of 0.947, a relative viability (A-427; first compound 0.000632 µM) of 1.02 and a relative viability (A-427; first compound 0.002 µM) of 0.961. The relative viability (A-427; first compound 0.006325 µM) was 0.211 and the relative viability (A-427; first compound 0.02 µM) was 0.162.
